US20250084087A1, “BICYCLIC HETEROCYCLES AS MRGPRX2 ANTAGONISTS” (Incyte Corporation, priority 2023, published 2025)

Legend:
Assay type in all cases: cell-based
[1] = target: T1, MRGPRX2 (Homo sapiens, UniProt Q96LB1); assay: MRGPRX2 FLIPR calcium mobilization assay; parameters: host or cells: CHO-K1; conditions: CHO-K1 cells stably expressing human MRGPRX2; Ca2+ release; agonist Cortistatin-14 at EC80
T1 sequence (Q96LB1 1-330): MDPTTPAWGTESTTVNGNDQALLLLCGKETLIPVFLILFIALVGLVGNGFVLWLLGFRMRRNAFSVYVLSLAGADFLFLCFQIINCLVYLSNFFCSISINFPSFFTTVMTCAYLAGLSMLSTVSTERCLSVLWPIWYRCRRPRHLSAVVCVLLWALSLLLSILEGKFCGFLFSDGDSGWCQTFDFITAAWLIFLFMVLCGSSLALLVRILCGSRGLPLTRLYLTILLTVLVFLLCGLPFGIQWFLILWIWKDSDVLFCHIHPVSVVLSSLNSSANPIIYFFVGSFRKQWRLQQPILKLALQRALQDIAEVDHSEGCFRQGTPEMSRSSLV
Method: Example A. MRGPRX2 FLIPR Calcium Mobilization Assay
Chinese hamster ovary (CHO-K1) cells stably expressing human MRGPRX2 were purchased from Genescript (Piscataway, NJ). The cells were maintained in culture medium (Ham's F-12K) containing 10% (v/v) FBS, 200 μg/mL Zeocin, 100 units/mL penicillin G and 100 μg/mL streptomycin (Life Technologies, Carlsbad, CA). For the assay, the cells were harvested and resuspended with culture medium without Zeocin before plating at 8000 cells per well in 20 μL in 384-well black clear bottom cell culture plates (VWR, Radnor, PA). After 24 hour culture at 37° C. and 5% CO2, the cells were loaded with 20 μL/well of calcium dye (FLIPR Calcium 6 Assay Kit, Molecular Devices, San Jose, CA) diluted in loading buffer (1× Hank's Balanced Salt Solution (HBSS), 5 mM probenecid, 20 mM 4-(2-hydroxyethyl)-1-piperazineethanesulfonic acid (HEPES), pH 7.4, VWR, Radnor, PA) followed with 45 min. incubation at 37° C. and 40 min. at r.t. in the dark. Cells were then treated with the addition of 10 uL/well test compounds with a range of increasing concentrations diluted in the assay buffer (1×HBSS, 20 mM HEPES, pH 7.4, VWR, Radnor, PA) with FLIPR Penta (Molecular Devices. San Jose, CA) and incubated for 30 min. at r.t. Ca^2+ release was measured with FLIPR Penta with 10 seconds basal fluorescence measurement, then 12.5 μL of 5× agonist Cortistatin-14 (Tocris, Minneapolis, MN) at final concentration corresponding to the EC80 were added followed with continued fluorescence signal monitoring for an additional 110 seconds. The base line adjusted (median of first 10s base line) max value of the Relative Fluorescence Unit (RFU) was plotted against compound concentrations. Wells with no compound were served as the positive controls, and wells with high concentration of reference antagonist were used as negative controls. IC50 curves were globally fitted with 3- or 4-parameter Hill equation in a Genedata Screener (Genedata Basel, Switzerland).

[2] = target: T1, MRGPRX2; assay: MRGPRX2 β-Arrestin recruitment assay (PathHunter); parameters: host or cells: CHO-K1 (PathHunter); conditions: PathHunter CHO-K1 MRGPRX2 β-Arrestin cell line; agonist Cortistatin 14 0.25 μM
Source text: Example C: MRGPRX2 P-Arrestin Assay
This assay measures compound inhibition of P-Arrestin recruitment, which is part of the G protein-independent pathway that results from the ligand-activated GPCR phosphorylation by specific GPCR kinases. The PathHunter CHO-K1 MRPGRX2 B-Arrestin Cell line stably expressing ProLink tagged MRGPRX2 and Enzyme Acceptor Tagged B-Arrestin was purchased from Eurofins DiscoverX, (Fremont, CA).
The cells were maintained in culture medium from the Europhins DiscoverX Cell Culture Kit-107 which includes FBS, hygromycin B and G418. For the assay, the cells were harvested and were resuspended with Cell Plating Reagent 2 (Eurofins DiscoverX). Cells were added 10000 cells in 25 μL/well to a 384-well black cell culture plate (Greiner VWR, Radnor, PA) which contained 125 nL/well of compound at a selected serially diluted concentration range or DMSO. The plate was incubated at 37° C. with 5% CO2 for 1 h. 2 μL/well of agonist Cortistatin 14 was diluted in Protein Dilution Buffer, (Eurofins DiscoverX) for a final concentration of 0.25 μM, was added and the plate was incubated at 37° C. with 5% CO2 for 90 min. 14 μL/well of Detection Reagent Mix (PathHunter Detection Kit, Eurofins DiscoverX) was added to the plates and further incubated for 1 h in the dark. Plates were read on the PHERAstar microplate reader (BMG Labtech Cary, NC) measuring luminescence 0.1 to 1 second per well. Data was normalized using DMSO only wells and wells with high concentration of reference antagonist as controls. Compound IC50 curves were globally fitted with 3- or 4-parameter Hill equation in a Genedata Screener (Genedata Basel, Switzerland).

[3] = target: T1, MRGPRX2; assay: MRGPRX2 IP1 HTRF assay; parameters: host or cells: CHO-K1; conditions: CHO-K1 cells stably expressing human MRGPRX2; IP1 accumulation; agonist Cortistatin 14 1 μM
Source text: Example B: MRGPRX2 IP1 HTRF Assay
This assay measures compound inhibition of myo-Inositol 1 phosphate (IP1) accumulation in CHO-K1 cells. Chinese hamster ovary (CHO-K1) cells stably expressing human MRGPRX2 were purchased from GenScript (Piscataway, NJ).
For the HTRF IP1 determination, an IP-One GqKit (Perkin Elmer Cisbio, Waltham, MA), which includes all reagents and buffers in this protocol, was used. The cells were maintained in culture medium (Ham's F-12K) containing 10% (v/v) FBS, and 200 μg/mL Zeocin. For the assay, the cells were harvested and resuspended in culture medium with 2% FBS and without Zeocin, then were passed through a 40 μm filter. Cells were added at 20000 cells in a 5 μL/well to a 384-well white small volume cell culture plate (Greiner VWR, Radnor, PA) which contained 50 nL/well of test compound serially diluted at a selected concentration range in DMSO. 5 μL/well of prepared 2× Stimulation Buffer2 was then added to plates and was incubated at 37° C. with 5% CO2 for 1 h. 5 μL/well of agonist Cortistatin 14 (Bio-TechneR&D Systems, Minneapolis, MN) in 1× Stimulation Buffer2, for a 1 μM final concentration, was then added to plates and incubated at 37° C. with 5% CO2 for 1 h. 6 μL/well of 1:20 diluted Detection Reagent Mix (d2 and Cryptate) was added to the plates and incubated for 1 h in the dark. Plates were read on the PHERAstar microplate reader (BMG Labtech Cary, NC) to determine the HTRF ratio of the acceptor and donor emission signals. The IP1 concentrations were calculated from a standard curve following the IP-One GQ kit instructions. Wells with DMSO only and wells with high concentration of reference antagonist were used as controls for normalization. Compound IC50 curves were globally fitted with 3- or 4-parameter Hill equation in a Genedata Screener (Genedata Basel, Switzerland).

Structure (SMILES) | IC50 [1] | IC50 [2] | IC50 [3]
OC1CCC(CNc2cc(C(F)(F)F)nc3cc(Br)nn23)(c2ccccc2)C1 (racemic) [Example 84, 3-(((2-Bromo-5-(trifluoromethyl)pyrazolo[1,5-a]pyrimidin-7-yl)amino)methyl)-3-phenylcyclopentan-1-ol] | 0.1 to 100 nM | 0.1 to 100 nM | –
Cn1nc(N2CCC(CNc3cc(C(F)(F)F)nc4cc(C(F)(F)F)nn34)(c3ccc(F)cc3)CC2)ccc1=O [Example 40, 6-(4-(((2,5-Bis(trifluoromethyl)pyrazolo[1,5-a]pyrimidin-7-yl)amino)methyl)-4-(4-fluorophenyl)piperidin-1-yl)-2-methylpyridazin-3(2H)-one] | 0.1 to 100 nM | 0.1 to 100 nM | –
Cn1cc(N2CC(CNc3cc(C(F)(F)F)nc4cc(C(F)(F)F)nn34)(c3ccc(F)cc3)C2)nn1 [Example 46, N-((3-(4-Fluorophenyl)-1-(1-methyl-1H-1,2,3-triazol-4-yl)azetidin-3-yl)methyl)-2,5-bis(trifluoromethyl)pyrazolo[1,5-a]pyrimidin-7-amine] | 0.1 to 100 nM | 0.1 to 100 nM | –
NC(=O)c1cccc(N2CC(CNc3cc(C(F)(F)F)nc4cc(C(F)(F)F)nn34)(c3ccc(F)cc3)C2)n1 [Example 47, 6-(3-(((2,5-Bis(trifluoromethyl)pyrazolo[1,5-a]pyrimidin-7-yl)amino)methyl)-3-(4-fluorophenyl)azetidin-1-yl)picolinamide] | 0.1 to 100 nM | 0.1 to 100 nM | –
Cc1cc2nc(I)cc(NCC3(c4ccccc4)CCOC3)n2n1 (stereo not shown) [Example 78, 5-Iodo-2-methyl-N-((3-phenyltetrahydrofuran-3-yl)methyl)pyrazolo[1,5-a]pyrimidin-7-amine] | 100 to 1000 nM | – | –
N#Cc1cc2nc(C(F)(F)F)cc(NCC3(n4cccn4)CN(S(N)(=O)=O)C3)n2n1 [Example 95, 3-(((2-Cyano-5-(trifluoromethyl)pyrazolo[1,5-a]pyrimidin-7-yl)amino)methyl)-3-(1H-pyrazol-1-yl)azetidine-1-sulfonamide] | 0.1 to 100 nM | – | –
O=C(N[C@H]1CC[C@H](O)CC1)N1CC(CNc2cccc3nc(C(F)(F)F)cn23)(c2ccc(F)cc2)C1 [Example 102, 3-(4-Fluorophenyl)-N-((1r,4r)-4-hydroxycyclohexyl)-3-(((2-(trifluoromethyl)imidazo[1,2-a]pyridin-5-yl)amino)methyl)azetidine-1-carboxamide] | – | 0.1 to 100 nM | 0.1 to 100 nM
[2H]C([2H])([2H])NC(=O)N1CC(CNc2cccc3nc(C(F)(F)F)nn23)(c2ccc(F)cc2)C1 [Example 103, 3-(4-Fluorophenyl)-N-(methyl-d3)-3-(((2-(trifluoromethyl)-[1,2,4]triazolo[1,5-a]pyridin-5-yl)amino)methyl)azetidine-1-carboxamide] | – | 0.1 to 100 nM | 0.1 to 100 nM
CN(C)c1cc(NCC2(c3ccc(F)cc3)CN(S(N)(=O)=O)C2)n2nc(C(F)(F)F)cc2n1 [Example 105, 3-(((5-(Dimethylamino)-2-(trifluoromethyl)pyrazolo[1,5-a]pyrimidin-7-yl)amino)methyl)-3-(4-fluorophenyl)azetidine-1-sulfonamide] | 0.1 to 100 nM | – | –
[2H]C([2H])([2H])c1cc(NCC2(c3ccc(F)cc3)CN(C(=O)NCC(F)(F)F)C2)n2nc(C(F)(F)F)cc2n1 [Example 109, 3-(4-Fluorophenyl)-3-(((5-(methyl-d3)-2-(trifluoromethyl)pyrazolo[1,5-a]pyrimidin-7-yl)amino)methyl)-N-(2,2,2-trifluoroethyl)azetidine-1-carboxamide] | – | 0.1 to 100 nM | 0.1 to 100 nM
[2H]C([2H])([2H])c1cc(NCC2(c3ccc(F)cc3)CN(C(=O)NCC(F)F)C2)n2nc(C(F)(F)F)cc2n1 [Example 110, N-(2,2-Difluoroethyl)-3-(4-fluorophenyl)-3-(((5-(methyl-d3)-2-(trifluoromethyl)pyrazolo[1,5-a]pyrimidin-7-yl)amino)methyl)azetidine-1-carboxamide] | – | 0.1 to 100 nM | 0.1 to 100 nM
[2H]C([2H])([2H])C([2H])([2H])c1cc(NCC2(c3ccc(F)cc3)CN(C(N)=O)C2)n2nc(C(F)(F)F)cc2n1 [Example 111, 3-(((5-(Ethyl-d5)-2-(trifluoromethyl)pyrazolo[1,5-a]pyrimidin-7-yl)amino)methyl)-3-(4-fluorophenyl)azetidine-1-carboxamide] | – | 0.1 to 100 nM | 0.1 to 100 nM
[2H]C([2H])([2H])C([2H])([2H])c1cc(NCC2(c3ccc(F)cc3)CN(C(=O)N[C@H]3CC[C@H](O)CC3)C2)n2nc(C(F)(F)F)cc2n1 [Example 112, 3-(((5-(Ethyl-d5)-2-(trifluoromethyl)pyrazolo[1,5-a]pyrimidin-7-yl)amino)methyl)-3-(4-fluorophenyl)-N-((1r,4r)-4-hydroxycyclohexyl)azetidine-1-carboxamide] | – | 0.1 to 100 nM | 0.1 to 100 nM
[2H]C([2H])([2H])C([2H])([2H])c1cc(NCC2(c3ccc(F)cc3)CN(C(=O)N[C@@H]3CC[C@@H](O)C3)C2)n2nc(C(F)(F)F)cc2n1 [Example 113, 3-(((5-(Ethyl-d5)-2-(trifluoromethyl)pyrazolo[1,5-a]pyrimidin-7-yl)amino)methyl)-3-(4-fluorophenyl)-N-((1R,3R)-3-hydroxycyclopentyl)azetidine-1-carboxamide] | – | 0.1 to 100 nM | 0.1 to 100 nM
